Row | SMILES | melting point
1 | Cc1ccc(-c2ccc3c(c2)C=C(C(=O)Nc2ccc(C(O)CN4CCCCC4)cc2)CCO3)cc1 (centres unmarked) [Compound 145, N-(4—(1-hydroxy-2-piperidinoethyl)phenyl)-7—(4-methylphenyl)-2,3-dihydro-1-benzoxepine-4-carboxamide] | 212 to 213 °C
2 | CN(Cc1ccc(NC(=O)C2=Cc3cc(-c4cccnc4)ccc3OCC2)cc1)C1CCOCC1 [Compound 146, 7—(3-pyridyl)-N-(4—((N-tetrahydropyran-4-yl-N-methylamino)-methyl)phenyl)-2,3-dihydro-1-benzoxepine-4-carboxamide] | 158 to 159 °C
3 | CN(C)c1ccc(-c2ccc3c(c2)C=C(C(=O)Nc2ccc(CN(C)C4CCOCC4)cc2)CCO3)cc1 [Compound 149, 7—(4-dimethylaminophenyl)-N-(4—((N-tetrahydropyran-4-yl-N-methylamino)methyl)phenyl)-2,3-dihydro-1-benzoxepine-4-carboxamide] | 208 to 209 °C (dec.)
4 | CN(Cc1ccc(NC(=O)C2=Cc3cc(-c4ccc(N5CCCC5)cc4)ccc3OCC2)cc1)C1CCOCC1 [Compound 150, 7—(4—(pyrrolidin-1-yl)phenyl)-N-(4—((N-tetrahydropyran-4-yl-N-methylamino)-methyl)phenyl)-2,3-dihydro-1-benzoxepine-4-carboxamide] | 210 to 211 °C
5 | CN(Cc1ccc(NC(=O)C2=Cc3cc(-c4ccc(-n5ccnc5)cc4)ccc3OCC2)cc1)C1CCOCC1 [Compound 153, 7—(4—(1-imidazolyl)phenyl)-N-(4—((N-tetra-hydropyran-4-yl-N-methylamino)methyl)phenyl)-2,3-dihydro-1-benzoxepine-4-carboxamide] | 194 to 195 °C
6 | CN(C)c1ccc(-c2ccc3c(c2)C=C(C(=O)Nc2ccc(CP4(=O)CCCCC4)cc2)CCO3)cc1 [Compound 154, 7—(4-dimethylaminophenyl)-N-(4—((1-oxophosphorinan-1-yl)methyl)phenyl)-2,3-dihydro-1-benzoxepine-4-carboxamide] | 293 to 294 °C (dec.)
7 | Cc1ccc(-c2ccc3c(c2)C=C(C(=O)Nc2ccc(C(=O)C4CCCCN4)cc2)CCO3)cc1 (centres unmarked) [Compound 156, N-(4—(piperidin-2-ylcarbonyl)phenyl)-7—(4-methylphenyl)-2,3-dihydro-1-benzoxepine-4-carboxamide] | 195 to 196 °C (dec.)
8 | CCP(=O)(CC)Cc1ccc(NC(=O)C2=Cc3cc(-c4ccc(C)cc4)ccc3OCC2)cc1 [Compound 163, N-(4-diethylphosphorylmethylphenyl)-7—(4-methylphenyl)-2,3-dihydro-1-benzoxepine-4-carboxamide] | 240 to 241 °C
9 | CCCP(=O)(CCC)Cc1ccc(NC(=O)C2=Cc3cc(-c4ccc(C)cc4)ccc3OCC2)cc1 [Compound 168, N-(4-dipropylphosphorylmethylphenyl)-7—(4-methylphenyl)-2,3-dihydro-1-benzoxepine-4-carboxamide] | 219 to 220 °C
10 | CCc1ccc(-c2ccc3c(c2)C=C(C(=O)Nc2ccc(CN(C)C4CCOCC4)cc2)CCO3)cc1 [Compound 177, N-[4-[N-methyl-N-(tetrahydropyran-4-yl)aminomethyl]phenyl]-7—(4-ethylphenyl)-2,3-dihydro-1-benzoxepine-4-carboxamide] | 181 to 182 °C

Now from value to molecule:

Row | melting point | SMILES
11 | 228 to 229 °C | Cc1ccc(-c2ccc3c(c2)C=C(C(=O)Nc2ccc(-c4ccccn4)cc2)CCO3)cc1 [Compound 159, N-[4—(2-pyridyl)phenyl]-7—(4-methylphenyl)-2,3-dihydro-1-benzoxepine-4-carboxamide]
12 | 254 °C (dec.) | Cc1ccc(-c2ccc3c(c2)C=C(C(=O)Nc2ccc(-c4cccc[n+]4[O-])cc2)CCO3)cc1 [Compound 160, N-[4—(1-oxidopyridin-2-yl)phenyl]-7—(4-methylphenyl)-2,3-dihydro-1-benzoxepine-4-carboxamide]
13 | 189 to 190 °C | Cc1ccc(-c2ccc3c(c2)C=C(C(=O)Nc2ccc(Cc4ccccn4)cc2)CCO3)cc1 [Compound 161, N-[4—(2-pyridylmethyl)phenyl]-7—(4-methylphenyl)-2,3-dihydro-1-benzoxepine-4-carboxamide]
14 | 188 to 190 °C | Cc1ccc(-c2ccc3c(c2)C=C(C(=O)Nc2ccc(Cc4cccc[n+]4[O-])cc2)CCO3)cc1 [Compound 162, N-[4—(1-oxidopyridin-2-ylmethyl)phenyl]-7—(4-methylphenyl)-2,3-dihydro-1-benzoxepine-4-carboxamide]
15 | 214 to 216 °C | Cc1ccc(-c2ccc3c(c2)C=C(C(=O)Nc2ccc(-c4cccnc4)cc2)CCO3)cc1 [Compound 164, N-[4—(3-pyridyl)phenyl]-7—(4-methylphenyl)-2,3-dihydro-1-benzoxepine-4-carboxamide]
16 | 262 °C (dec.) | Cc1ccc(-c2ccc3c(c2)C=C(C(=O)Nc2ccc(-c4ccc[n+]([O-])c4)cc2)CCO3)cc1 [Compound 165, N-[4—(1-oxidopyridin-3-yl)phenyl]-7—(4-methylphenyl)-2,3-dihydro-1-benzoxepine-4-carboxamide]
17 | 215 to 217 °C | Cc1ccc(-c2ccc3c(c2)C=C(C(=O)Nc2ccc(C(O)c4ccccn4)cc2)CCO3)cc1 (centres unmarked) [Compound 166, N-[4-[hydroxy(2-pyridyl)-methyl]phenyl]-7—(4-methylphenyl)-2,3-dihydro-1-benzoxepine-4-carboxamide]
18 | 208 to 210 °C | Cc1ccc(-c2ccc3c(c2)C=C(C(=O)Nc2ccc(C(O)c4cccc[n+]4[O-])cc2)CCO3)cc1 (centres unmarked) [Compound 167, N-[4-[hydroxy(1-oxidopyridin-2-yl)methyl]phenyl]-7—(4-methylphenyl)-2,3-dihydro-1-benzoxepine-4-carboxamide]
19 | 232 to 233 °C | COc1cccnc1C(O)c1ccc(NC(=O)C2=Cc3cc(-c4ccc(C)cc4)ccc3OCC2)cc1 (centres unmarked) [Compound 169, N-[4-[hydroxy(3-methoxy-pyridin-2-yl)methyl]phenyl]-7—(4-methylphenyl)-2,3-dihydro-1-benzoxepine-4-carboxamide]
20 | 242 °C (dec.) | COc1ccc[n+]([O-])c1C(O)c1ccc(NC(=O)C2=Cc3cc(-c4ccc(C)cc4)ccc3OCC2)cc1 (centres unmarked) [Compound 170, N-[4-[hydroxy(3-methoxy-1-oxidopyridin-2-yl)methyl]phenyl]-7—(4-methylphenyl)-2,3-dihydro-1-benzoxepine-4-carboxamide]
21 | 206 to 208 °C | COCOc1ccc[n+]([O-])c1Cc1ccc(NC(=O)C2=Cc3cc(-c4ccc(C)cc4)ccc3OCC2)cc1 [Compound 173, N-[4—(1-oxido-3-methoxymethoxypyridin-2-ylmethyl)phenyl]-7—(4-methylphenyl)-2,3-dihydro-1-benzoxepine-4-carboxamide]
22 | 285 to 288 °C | Cc1ccc(-c2ccc3c(c2)C=C(C(=O)Nc2ccc(Cc4ncccc4O)cc2)CCO3)cc1 [Compound 174, N-[4—(3-hydroxypyridin-2-ylmethyl)phenyl]-7—(4-methylphenyl)-2,3-dihydro-1-benzoxepine-4-carboxamide]
23 | 254 °C (dec.) | Cc1ccc(-c2ccc3c(c2)C=C(C(=O)Nc2ccc(Cc4c(O)ccc[n+]4[O-])cc2)CCO3)cc1 [Compound 175, N-[4—(1-oxido-3-hydroxypyridin-2-ylmethyl)phenyl]-7—(4-methylphenyl)-2,3-dihydro-1-benzoxepine-4-carboxamide]

Source: patent US6413947B1, “Anilide derivative, production and use thereof” (Takeda Chemical Industries, Ltd., priority 1997, dated 2002)
